In this experiment the target is GST-Xa-hAAK1 (Homo sapiens (Human), UniProt Q2M2I8). Briefly: AAK1 Kinase Assay.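 Further: each compound tested across an eleven-point concentration series, with IC50 obtained through non-linear regression fitting.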 The note with it: bacterially expressed GST-Xa-hAAK1 3.5 nM; ATP 22 μM; peptide substrate 1.5 μM; 3 hours at room temperature; Caliper LabChip 3000. The class given is biochemical.
Sequence of GST-Xa-hAAK1 (Q2M2I8 whole entry): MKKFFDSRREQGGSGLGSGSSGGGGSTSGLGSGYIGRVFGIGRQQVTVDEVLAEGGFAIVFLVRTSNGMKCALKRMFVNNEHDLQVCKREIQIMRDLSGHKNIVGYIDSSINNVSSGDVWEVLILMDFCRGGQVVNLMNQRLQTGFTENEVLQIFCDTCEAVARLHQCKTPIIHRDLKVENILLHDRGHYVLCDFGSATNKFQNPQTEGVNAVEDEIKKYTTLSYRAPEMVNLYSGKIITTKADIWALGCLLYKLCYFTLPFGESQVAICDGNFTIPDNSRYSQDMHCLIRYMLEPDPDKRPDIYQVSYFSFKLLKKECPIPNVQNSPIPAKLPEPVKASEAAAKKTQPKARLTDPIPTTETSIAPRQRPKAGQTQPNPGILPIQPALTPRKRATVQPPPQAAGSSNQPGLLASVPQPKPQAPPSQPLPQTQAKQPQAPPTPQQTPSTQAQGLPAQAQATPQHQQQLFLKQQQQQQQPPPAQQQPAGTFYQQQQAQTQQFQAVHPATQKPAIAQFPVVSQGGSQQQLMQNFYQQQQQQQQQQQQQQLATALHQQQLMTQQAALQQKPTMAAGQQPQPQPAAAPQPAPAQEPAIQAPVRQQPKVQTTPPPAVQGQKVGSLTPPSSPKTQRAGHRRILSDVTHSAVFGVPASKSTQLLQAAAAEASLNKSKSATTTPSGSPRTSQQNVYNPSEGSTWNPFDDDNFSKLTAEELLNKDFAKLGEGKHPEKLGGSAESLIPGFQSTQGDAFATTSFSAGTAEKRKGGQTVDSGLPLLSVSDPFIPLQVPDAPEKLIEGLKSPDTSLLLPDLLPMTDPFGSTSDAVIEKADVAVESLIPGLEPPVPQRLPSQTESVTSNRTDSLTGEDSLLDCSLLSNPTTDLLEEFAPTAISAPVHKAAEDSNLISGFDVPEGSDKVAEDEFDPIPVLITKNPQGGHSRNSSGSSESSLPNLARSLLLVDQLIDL
Take `COC(=O)Nc1cc(-c2ccc(OCC(C)(N)CC(C)C)c(C)c2)ccn1` (stereo not drawn) [Example 30, methyl (4-(4-((2-amino-2,4-dimethylpentyl)oxy)-3-methylphenyl)pyridin-2-yl)carbamate]: the IC50 came to 1.4 nM. As for `Cc1cc(-c2ccc(OC[C@@](C)(N)CC(C)C)c(C)n2)ccn1` [Example 65, (S)-1-((2′,6-dimethyl-[2,4′-bipyridin]-5-yl)oxy)-2,4-dimethylpentan-2-amine], the figure is 42 nM; as for `COC(=O)Nc1cc(-c2ccc(OC[C@@](C)(N)CC(C)C)c(C)n2)ccn1` [Example 64, (S)-methyl (5-((2-amino-2,4-dimethylpentyl)oxy)-6-methyl-[2,4′-bipyridin]-2′-yl)carbamate], 1.1 nM; as for `CC(C)C[C@@](C)(N)COc1cnc(-c2ccnc(C(F)F)c2)cc1C(F)F` [Example 175, (R)-1-((2′,4-bis(difluoromethyl)-[2,4′-bipyridin]-5-yl)oxy)-2,4-dimethylpentan-2-amine], 17 nM.

In the case of `Cc1cc(-c2ccnc3cc(F)cc(F)c23)ncc1OC[C@@](C)(N)CC(C)C` [Example 226, (S)-1-((6-(5,7-difluoroquinolin-4-yl)-4-methylpyridin-3-yl)oxy)-2,4-dimethylpentan-2-amine], the IC50 was found to be 0.93 nM. In the case of `CC(C)C[C@](C)(N)COc1ccc(-c2ccnc3ccncc23)cc1C#N` [Example 86, (S)-2-((2-amino-2,4-dimethylpentyl)oxy)-5-(1,6-naphthyridin-4-yl)benzonitrile], the IC50 worked out at 1.2 nM. Regarding `COC(=O)Nc1cc(-c2ncc(OC[C@@](C)(N)CC(C)C)cn2)ccn1` [Example 210, (S)-methyl (4-(5-((2-amino-2,4-dimethylpentyl)oxy)pyrimidin-2-yl)pyridin-2-yl)carbamate], it took 79 nM to reach half-maximal inhibition (IC50). The compound `CC(C)C[C@](C)(N)COc1ccc(-c2ccnc3ccc(F)cc23)cc1C(F)(F)F` [Example 73, (S)-1-(4-(6-fluoroquinolin-4-yl)-2-(trifluoromethyl)phenoxy)-2,4-dimethylpentan-2-amine] gave an IC50 of 0.51 nM. In turn, `CC(C)C[C@@](C)(N)COc1cnc(-c2ccnc3ccccc23)cc1C(F)(F)F` [Example 165, (R)-2,4-dimethyl-1-((6-(quinolin-4-yl)-4-(trifluoromethyl)pyridin-3-yl)oxy)pentan-2-amine] registered an IC50 of 21 nM. On to `Cc1cc(-c2cc(C(F)F)c(OC[C@](N)(CF)CC(C)C)cn2)ccn1` [Example 187, (S)-1-((4-(difluoromethyl)-2′-methyl-[2,4′-bipyridin]-5-yl)oxy)-2-(fluoromethyl)-4-methylpentan-2-amine], for which the IC50 came out at 2.2 nM. The compound `CC(C)C[C@](C)(N)COc1ccc(-c2ccnc(F)c2F)cc1C(F)(F)F` [Example 42, (S)-1-(4-(2,3-difluoropyridin-4-yl)-2-(trifluoromethyl)phenoxy)-2,4-dimethylpentan-2-amine] yielded an IC50 of 3.3 nM. As for `COc1cc(-c2ccnc3ccccc23)cnc1OC[C@@](C)(N)CC(C)C` [Example 79, (S)-1-((3-methoxy-5-(quinolin-4-yl)pyridin-2-yl)oxy)-2,4-dimethylpentan-2-amine], the figure is 16 nM; as for `CC(=O)Nc1cc(-c2ccc(OC[C@@H](N)CC(C)C)c(F)c2)ccn1` [Example 1, (S)—N-(4-(4-((2-amino-4-methylpentyl)oxy)-3-fluorophenyl)pyridin-2-yl)acetamide], 2.7 nM.

Regarding `COC(=O)Nc1cc(-c2cc(C(F)(F)F)c(OC[C@@](C)(N)CC(C)C)cn2)ccn1` [Example 146, (S)-methyl (5-((2-amino-2,4-dimethylpentyl)oxy)-4-(trifluoromethyl)-[2,4′-bipyridin]-2′-yl)carbamate], 0.19 nM corresponded to half-maximal inhibition (IC50). `CC(=O)Nc1cc(-c2ccc(OC[C@@H](N)CC(C)C)c(C(F)(F)F)c2)ccn1` [Example 5, (S)—N-(4-(4-((2-amino-4-methylpentyl)oxy)-3-(trifluoromethyl)phenyl)pyridin-2-yl)acetamide] came in with an IC50 of 0.5 nM.

By IC50 is commonly meant the concentration needed to halve the response being measured.

These data come from patent US9902722B2, “Biaryl kinase inhibitors” (BRISTOL-MYERS SQUIBB COMPANY, priority 2014, dated 2018).
